The text below walks through data of patent US11672813B2, “Bortezomib compositions” (MAIA Pharmaceuticals, Inc., priority 2021, dated 2023).

The nature of series [1]: Estimated solubility of bortezomib in select non-aqueous solvents (visual, incremental solvent addition). The class given is physicochemical. The settings on record: for Observation: approximately 25 mg. The method, then: The appearance of the solution was recorded.
Series [2] in a line: Visual dissolution and physical stability of bortezomib formulations with low concentrations of benzyl alcohol or DMSO in water. The class given is physicochemical. As to conditions: target 2.5 mg/mL; benzyl alcohol (2% v/v), DMSO (5% v/v) or combination, water added afterwards. Here is the method:
Initial formulation experiments with low concentrations of various non-aqueous solvents were conducted targeting a bortezomib concentration of 2.5 mg/mL. Attempts to solubilize bortezomib were conducted using low concentrations of benzyl alcohol (2% v/v), or dimethyl sulfoxide (5% v/v), or a combination of these solvents. […] For these formulations, the non-aqueous solvent was added to bortezomib to dissolve it, followed by addition of water to the bortezomib-solvent mixture.
Various concentrations of DMSO were explored as the non-aqueous component of the formulation (2% v/v to 5% v/v in water). Bortezomib was first completely dissolved in the batch volume of DMSO to form a concentrated “premix” solution prior to making up the batch to the target concentration (2.5 mg/mL) with water. This was done to facilitate the subsequent dissolution of bortezomib in the aqueous component.

For the compound `CC(C)C[C@H](NC(=O)[C@H](Cc1ccccc1)NC(=O)c1cnccn1)B(O)O` [Bortezomib, [(1R)-3-methyl-1-[[(2S)-1-oxo-3-phenyl-2-[(pyrazinylcarbonyl)amino]propyl]amino]butyl] boronic acid], the Observation entry in series [1] (N-methyl pyrrolidone (NMP)) is “Completely dissolved after 1 mL”; in series [1] (benzyl alcohol), “Completely dissolved after 0.5 mL”; in series [1] (dimethyl sulfoxide (DMSO)), “Completely dissolved after 0.5 mL”; in series [1] (glycerol, up to 10 mL) it was “No significant dissolution observed up”; in series [1] (polyethylene glycol 400, up to 10 mL), “No significant dissolution observed up”. In addition, the “Observation: solvent needed to dissolve approximately 25 mg” value in series [1] (alcohol (ethanol)) is given as “Approximately 5.5 mL of solvent”; in series [1] (propylene glycol), “Approximately 7 mL of solvent needed”. Further, the “Outcome of dissolution attempt” value in series [2] is recorded as “precipitated after addition of water”.
